Measured values published in patent EP4678638A1, “NEW E3 UBIQUITIN LIGASE LIGAND, PROTEIN DEGRADATION AGENT AND USE THEREOF” (priority 2023, dated 2024).

Experiments:
H1975 = test: CCK-8 proliferation, NCI-H1975 (H1975); format: cell-based, Human; settings: Homo sapiens, NCI-H1975; CCK-8; 96 hours; read-out: Inhibitory activity (IC50) on tumor cell proliferation, H1975
Procedure, shortened: (§1)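 Cells seeded, then after 24 h treated with 10 concentrations (top 10 µM, 5-fold serial dilution) for a line-specific time at 37°C, 5% CO2. Viability read by CCK-8; IC50 fitted from growth-inhibition curves.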

MM.1R = test: CCK-8 proliferation, MM.1R; format: cell-based; settings: CCK-8, 72 hours, read-out: Inhibitory activity (IC50) on tumor cell proliferation, MM.1R
Procedure: (§2) The tumor cells used herein were cultured in a cell culture medium listed in table A1 at 37°C in an incubator with 5% CO2. Prior to experimentation, all cell lines used were correctly identified by STR profiling, and tested negative for mycoplasma contamination using a mycoplasma detection kit through routine screenings. Table A1. Tumor cells and cell culture medium used in the present disclosure
(§3) IC50 values of the compounds of the present disclosure (including the compounds in Table 1, and compounds of examples) were measured using the Meilun Cell Counting Kit-8 kit from Dalian Meilun Biotech Co., Ltd. Assay details are as follows: tumor cells were seeded in a 96-well plate at a density listed in Table A2. After 24h, 100 µL of the inoculated cells were treated with 0.5µL of the compounds of the present disclosure (including the compounds in Tables 1 and 2, and compounds of examples) at 10 different successively decreasing concentrations (starting at the highest concentration of 10µM; 5-fold serial dilutions). After the cells were treated with the compounds of the present disclosure for a period of time, the cell viability detection reagent was added to the culture medium for cell viability assessment according to the instructions provided with the CCK-8 kit. […] The growth inhibition of the compounds of the present disclosure on cells was plotted by Prism Graphpad software, and the IC50 values of the compounds of the present disclosure were calculated therefrom. […] Seeding protocol and treatment time for tumor cells

[1] = target: T1, human Cereblon WT GST-tagged protein (Homo sapiens, UniProt Q96SW2); test: CRBN binding, HTRF (CEREBLON BINDING kit); settings: Table II-2, CRBN binding screening, HTRF; for inhibition at 0.5 µM: read-out: Inhibition rate (%) at 0.5µM; for inhibition at 2 µM: read-out: Inhibition rate (%) at 2 µM
T1 construct: purchased CISBIO 64BDCRBNPEH
T1 sequence (Q96SW2 whole entry): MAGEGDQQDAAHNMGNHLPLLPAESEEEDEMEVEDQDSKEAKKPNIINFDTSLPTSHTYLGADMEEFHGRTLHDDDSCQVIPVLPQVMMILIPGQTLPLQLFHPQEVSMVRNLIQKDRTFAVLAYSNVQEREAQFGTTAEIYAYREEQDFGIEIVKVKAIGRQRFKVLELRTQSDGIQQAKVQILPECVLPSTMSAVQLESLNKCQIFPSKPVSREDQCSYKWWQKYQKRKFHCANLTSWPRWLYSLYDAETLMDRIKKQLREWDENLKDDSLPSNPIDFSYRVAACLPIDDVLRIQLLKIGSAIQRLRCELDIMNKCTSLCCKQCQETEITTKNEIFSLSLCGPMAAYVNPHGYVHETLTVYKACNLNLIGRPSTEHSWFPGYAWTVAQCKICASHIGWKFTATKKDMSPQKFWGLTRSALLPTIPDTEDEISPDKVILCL
Procedure, shortened: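 Competitive HTRF: GST-tagged human WT Cereblon mixed with compound, Thalidomide-Re tracer and GST Eu antibody, incubated 3 h at room temperature. Signals read at 620 and 665 nm.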

MM.1S = test: CCK-8 proliferation, MM.1S; format: cell-based; settings: Homo sapiens, MM1.S; CCK-8; 72 hours; read-out: Inhibitory activity (IC50) on tumor cell proliferation, MM1S
Procedure, shortened: as §1

CCRF-CEM = test: CCK-8 proliferation, CCRF-CEM; format: cell-based, Human; settings: Homo sapiens, CCRF-CEM; CCK-8; 96 hours; read-out: Inhibitory activity (IC50) on tumor cell proliferation, CCRF-CEM
Procedure, shortened: as §1

Kasumi-1 = test: CCK-8 proliferation, Kasumi-1; format: cell-based, Human; settings: Homo sapiens, Kasumi 1, 72 hours, read-out: Inhibitory activity (IC50) on tumor cell proliferation, Kasumi-1
Procedure: as §2, §3

CDK4 = target: T2, CDK4 (Homo sapiens, UniProt P11802); test: Western blot degradation of CDK4 (MDA-MB-231 Cell); format: cell-based; settings: Table D3
T2 construct: evaluate the effects of the compounds of the present disclosure on the expression of target proteins in cells; endogenous in cells; host or cells: MDA-MB-231
T2 sequence (P11802 whole entry): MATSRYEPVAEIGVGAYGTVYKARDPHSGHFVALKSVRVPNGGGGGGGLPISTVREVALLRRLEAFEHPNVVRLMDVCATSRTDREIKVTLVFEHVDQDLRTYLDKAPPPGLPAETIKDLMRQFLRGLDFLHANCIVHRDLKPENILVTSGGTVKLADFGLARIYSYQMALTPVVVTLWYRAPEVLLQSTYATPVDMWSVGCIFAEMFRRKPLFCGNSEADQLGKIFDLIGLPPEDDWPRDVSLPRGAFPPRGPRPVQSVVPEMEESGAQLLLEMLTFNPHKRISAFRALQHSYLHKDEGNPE
Procedure, shortened: (§4)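 Quantification by ImageJ densitometry of Western blot bands: DC50 is the fitted concentration halving band intensity relative to DMSO. Percent remaining uses internal-control normalization, and degradation rate is its complement.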

CDK6 = target: T3, CDK6 (Homo sapiens, UniProt Q00534); test: Western blot degradation of CDK6 (MDA-MB-231 Cell); format: cell-based; settings: Table D3
T3 construct: evaluate the effects of the compounds of the present disclosure on the expression of target proteins in cells; endogenous in cells; host or cells: MDA-MB-231
T3 sequence (Q00534 whole entry): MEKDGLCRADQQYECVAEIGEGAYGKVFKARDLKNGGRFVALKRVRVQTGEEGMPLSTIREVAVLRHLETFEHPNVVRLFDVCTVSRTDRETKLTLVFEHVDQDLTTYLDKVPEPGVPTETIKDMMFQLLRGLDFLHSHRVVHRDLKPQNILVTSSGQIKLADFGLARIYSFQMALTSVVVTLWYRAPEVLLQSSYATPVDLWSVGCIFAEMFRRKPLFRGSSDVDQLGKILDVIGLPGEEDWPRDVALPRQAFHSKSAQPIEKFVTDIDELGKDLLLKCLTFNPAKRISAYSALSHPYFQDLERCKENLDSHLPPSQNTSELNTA
Procedure, shortened: as §4

MCF7 = test: CCK-8 proliferation, MCF7 (MCF-7); format: cell-based; settings: Homo sapiens, MCF7; CCK-8; read-out: Inhibitory activity (IC50) on tumor cell proliferation, MCF7
Procedure, shortened: as §1

SR = test: CCK-8 proliferation, SR; format: cell-based, Human; settings: Homo sapiens, SR; CCK-8; 72 hours; read-out: Inhibitory activity (IC50) on tumor cell proliferation, SR
Procedure, shortened: as §1

Jurkat = test: CCK-8 proliferation, Jurkat; format: cell-based, Human; settings: Homo sapiens, Jurkat; CCK-8; 96 hours; read-out: Inhibitory activity (IC50) on tumor cell proliferation, Jurkat
Procedure, shortened: as §1

SW620 = test: CCK-8 proliferation, SW620; format: cell-based; settings: Homo sapiens, SW-620; CCK-8; 96 hours; read-out: Inhibitory activity (IC50) on tumor cell proliferation, SW620
Procedure, shortened: as §1

22RV1 = test: CCK-8 proliferation, 22RV1; format: cell-based; settings: Homo sapiens, 96 hours, read-out: Inhibitory activity (IC50) on tumor cell proliferation, 22RV1
Procedure: as §2, §3

Compound	IC50 (H1975) [nM]	IC50 (MM.1R) [nM]	inhibition at 0.5 µM [1] [%]	inhibition at 2 µM [1] [%]	IC50 (MM.1S) [nM]	IC50 (CCRF-CEM) [nM]	IC50 (MCF7) [nM]	IC50 (Jurkat) [nM]	IC50 (SW620) [nM]	IC50 (22RV1) [nM]	IC50 (Kasumi-1) [nM]	Degradation of substrate protein CDK4 (substrate protein remaining %) (CDK4)	Degradation of substrate protein CDK6 (substrate protein remaining %) (CDK6)	IC50 (SR) [nM]
Cc1nc2c(F)cc(-c3nc(Nc4ccc(N5CCC(N6CCN(Cc7ccc(C8CCC(=O)NC8=O)c(F)c7)CC6)CC5)cn4)ncc3F)cc2n1C(C)C (stereo not drawn) [GT-03906, 3-(2-fluoro-4-((4-(1-(6-((5-fluoro-4-(4-fluoro-1-isopropyl-2-methyl-1H-benzo[d]imidazol-6-yl)pyrimidin-2-yl)amino)pyridin-3-yl)piperidin-4-yl)piperazin-1-yl)methyl)phenyl)piperidine-2,6-dione]	100 to 500	50 to 100			10 to 50	100 to 500	100 to 500				50 to 100	A (A is defined as 0% ≤ substrate protein remaining % ≤ 80%)	A (A is defined as 0% ≤ substrate protein remaining % ≤ 80%)	50 to 100
COc1cc(C(=O)NC2CCN(Cc3cccc(N4CCC(=O)NC4=O)c3)CC2)c(F)cc1Nc1ncc(C(F)(F)F)c(Oc2cccc3c2C(=O)N(C)C3)n1 [GT-04257, N-(1-(3-(2,4-dioxotetrahydropyrimidin-1(2H)-yl)benzyl)piperidin-4-yl)-2-fluoro-5-methoxy-4-((4-((2-methyl-3-oxoisoindolin-4-yl)oxy)-5-(trifluoromethyl)pyrimidin-2-yl)amino)benzamide]		100 to 500	60 to 80	80 to 100		100 to 500		100 to 500	500 to 1000					
Cc1nc2c(F)cc(-c3nc(Nc4ccc(N5CCC(N6CCN(Cc7cc(N8CCC(=O)NC8=O)ncc7F)CC6)CC5)cn4)ncc3F)cc2n1C(C)C [GT-07486, 1-(5-fluoro-4-((4-(1-(6-((5-fluoro-4-(4-fluoro-1-isopropyl-2-methyl-1H-benzo[d]imidazol-6-yl)pyrimidin-2-yl)amino)pyridin-3-yl)piperidin-4-yl)piperazin-1-yl)methyl)pyridin-2-yl)dihydropyrimidine-2,4(1H,3H)-dione]	50 to 100				50 to 100	100 to 500	50 to 100			10 to 50				

Now from value to molecule, other results behind:

IC50 (H1975) [nM]	IC50 (MM.1R) [nM]	inhibition at 0.5 µM [1] [%]	inhibition at 2 µM [1] [%]	IC50 (MM.1S) [nM]	IC50 (CCRF-CEM) [nM]	IC50 (MCF7) [nM]	IC50 (Jurkat) [nM]	IC50 (SW620) [nM]	IC50 (22RV1) [nM]	Compound	IC50 (Kasumi-1) [nM]	Degradation of substrate protein CDK4 (substrate protein remaining %) (CDK4)	Degradation of substrate protein CDK6 (substrate protein remaining %) (CDK6)	IC50 (SR) [nM]
100 to 500	50 to 100	40 to 53	53 to 60	50 to 100	100 to 500					Cc1nc2c(F)cc(-c3nc(Nc4ccc(N5CCC(N6CCN(Cc7ccc(C8CCC(=O)NC8=O)cc7)CC6)CC5)cn4)ncc3F)cc2n1C(C)C (stereo not drawn) [GT-03905, 3-(4-((4-(1-(6-((5-fluoro-4-(4-fluoro-1-isopropyl-2-methyl-1H-benzo[d]imidazol-6-yl)pyrimidin-2-yl)amino)pyridin-3-yl)piperidin-4-yl)piperazin-1-yl)methyl)phenyl)piperidine-2,6-dione]	50 to 100	A (A is defined as 0% ≤ substrate protein remaining % ≤ 80%)	A (A is defined as 0% ≤ substrate protein remaining % ≤ 80%)	
50 to 100		30 to 40	53 to 60	10 to 50	50 to 100	10 to 50			10 to 50	Cc1nc2c(F)cc(-c3nc(Nc4ccc(N5CCC(N6CCN(Cc7ccnc(N8CCC(=O)NC8=O)c7)CC6)CC5)cn4)ncc3F)cc2n1C(C)C [GT-07487, 1-(4-((4-(1-(6-((5-fluoro-4-(4-fluoro-1-isopropyl-2-methyl-1H-benzo[d]imidazol-6-yl)pyrimidin-2-yl)amino)pyridin-3-yl)piperidin-4-yl)piperazin-1-yl)methyl)pyridin-2-yl)dihydropyrimidine-2,4(1H,3H)-dione]				
